Source: patent US6642392B1 (priority 1997, dated 2003)
Read-outs that look alike come from different tables or passages of the source.

Tests used:
Assay type in all cases: in vivo
[1] = test system: Puccinia recondita; assay: Test B: wheat leaf rust, preventive spray on wheat seedlings; conditions: for Test B disease control rating: wheat leaf rust; for Test B disease control rating (100 = 100% disease control, 0 = no disease control): wheat seedlings sprayed to run-off, inoculated the following day, rating relative to controls, unmarked compounds (standard test rate)
In short: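 Preventive test: P. recondita spores were applied one day after a run-off spray of compound suspension on wheat seedlings. Plants had 24 h at 20 °C in saturated air plus 6 days in a 20 °C growth chamber. Scoring is % disease control (100 = full) relative to controls.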

[2] = test system: Botrytis cinerea; assay: Test E: gray mold, preventive spray on cucumber seedlings; conditions: for Test E disease control rating: gray mold on cucumber; for Test E disease control rating (100 = 100% disease control, 0 = no disease control): cucumber seedlings sprayed to run-off, inoculated the following day, rating relative to controls, unmarked compounds (standard test rate)
In short: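 Preventive spray on cucumber seedlings used a suspension (3% acetone, 250 ppm Trem 014), applied to run-off one day before inoculation with Botrytis cinerea spores. Plants were held 48 h at 20° C in saturated air, then 5 days at 20° C. Percent disease control was scored relative to untreated plants.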

[3] = test system: Eiysiphe graminis f. sp. tritici; assay: Test A: wheat powdery mildew, preventive spray on wheat seedlings; conditions: for Test A disease control rating: wheat powdery mildew; for Test A disease control rating (100 = 100% disease control, 0 = no disease control): wheat seedlings sprayed to run-off, inoculated the following day, rating relative to controls, unmarked compounds (standard test rate)
In short: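 Preventive test: seedlings inoculated with powdery mildew spores one day after run-off spraying of a suspension. Ratings after 7 days in a 20° C growth chamber express percent disease control versus controls.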

[4] = test system: Phytophthora infestans; conditions: for Test D disease control rating: tomato late blight; for Test D disease control rating (100 = 100% disease control, 0 = no disease control): tomato seedlings sprayed to run-off, inoculated the following day, rating relative to controls, unmarked compounds (standard test rate)
[5] = test system: Pyricularia oryzae; conditions: for Test C disease control rating: rice blast; for Test C disease control rating (100 = 100% disease control, 0 = no disease control): rice seedlings sprayed to run-off, inoculated the following day, rating relative to controls, unmarked compounds (standard test rate)
[6] = 100 = 100% disease control, 0 = no control, unmarked entries (standard test concentration)
[7] = 100 = 100% disease control, 0 = no control relative to controls, unmarked entries (standard test concentration)

| Structure (SMILES) | Test B disease control rating [1, 6] | Test E disease control rating [2, 6] | Test A disease control rating [3, 7] | Test D disease control rating [4, 6] | Test C disease control rating [5, 6] | Test B disease control rating ([1]; tested at 40 ppm) | Test E disease control rating ([2]; tested at 40 ppm) | Test A disease control rating ([3]; tested at 40 ppm) | Test D disease control rating ([4]; tested at 40 ppm) | Test C disease control rating ([5]; tested at 40 ppm) | other results |
| --- | --- | --- | --- | --- | --- | --- | --- | --- | --- | --- | --- |
| CC(COc1ccc(C(C)(C)C)cc1)NC(=O)C(C#N)C(C)(C)C (mixture of isomers) [compound 24] | 0% | 94% | 62% | 66% | 53% |  |  |  |  |  |  |
| C[C@H](COc1cccc(F)c1F)NC(=O)C(C#N)C(C)(C)C (single isomer, unassigned) [26a] | 28% | 0% | 38% | 51% | 97% |  |  |  |  |  |  |
| CCC1(C(=O)NCC=Cc2ccccc2Cl)C(C)C1(Cl)Cl (centres unmarked) [compound 158] |  |  |  |  |  | 0% | 0% | 0% | 0% | 52% |  |
| CCC1(C(=O)NC(C)C=Cc2ccc(F)cc2)C(C)C1(Cl)Cl (mixture of isomers) [compound 261] |  |  |  |  |  |  |  |  |  |  | Test B disease control rating (100 = 100% disease control, 0 = no disease control) [1]: 0%; Test E disease control rating (100 = 100% disease control, 0 = no disease control) [2]: 0%; Test A disease control rating (100 = 100% disease control, 0 = no disease control) [3]: 0%; Test D disease control rating (100 = 100% disease control, 0 = no disease control) [4]: 54%; Test C disease control rating (100 = 100% disease control, 0 = no disease control) [5]: 100% |
| Cc1ccccc1OCC(C)NC(=O)C(C#N)C(C)(C)C (mixture of isomers) [compound 19] | 0% | 0% | 0% | 0% | 97% |  |  |  |  |  |  |
| CC(COc1ccccc1C(F)(F)F)NC(=O)C(C#N)C(C)(C)C (mixture of isomers) [17b] | 28% | 0% | 38% | 0% | 100% |  |  |  |  |  |  |
| CCC1(C(=O)NC(C)COc2ccc(Cl)c(Cl)c2)C(C)C1(Cl)Cl (centres unmarked) [compound 230] |  |  |  |  |  |  |  |  |  |  | Test B disease control rating (100 = 100% disease control, 0 = no disease control) [1]: 0%; Test E disease control rating (100 = 100% disease control, 0 = no disease control) [2]: 45%; Test A disease control rating (100 = 100% disease control, 0 = no disease control) [3]: 0%; Test D disease control rating (100 = 100% disease control, 0 = no disease control) [4]: 0%; Test C disease control rating (100 = 100% disease control, 0 = no disease control) [5]: 53% |
| C[C@H](COc1ccc(Br)cc1)NC(=O)C(C#N)C(C)(C)C (single isomer, unassigned) [10c] | 86% | 0% | 0% | 35% | 53% |  |  |  |  |  |  |
| C[C@H](COc1ccc(F)cc1Cl)NC(=O)C(C#N)C(C)(C)C (single isomer, unassigned) [37b] | 68% | 0% | 77% | 96% | 99% |  |  |  |  |  |  |
| CC(COc1ccccc1F)NC(=O)C(C#N)C(C)C(C)(C)C (mixture of isomers) [compound 57] |  |  |  |  |  | 0% | 0% | 91% | 0% | 85% |  |
| Cc1ccc(Cl)c(OC[C@@H](C)NC(=O)C(C#N)C(C)(C)C)c1 (single isomer, unassigned) [15a] | 28% | 86% | 0% | 92% | 97% |  |  |  |  |  |  |
| CCC1(C(=O)NC(C)COc2ccc(Cl)cc2)C(C)C1(Cl)Cl (mixture of isomers) [83b] |  |  |  |  |  | 0% | 0% | 52% | 0% | 53% |  |
| CCC1(C(=O)NC(C)COc2ccccc2Br)C(C)C1(Cl)Cl (mixture of isomers) [84b] |  |  |  |  |  | 28% | 0% | 57% | 75% | 73% |  |
